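Dose response: 5 concentrations. Exposure: 48 h. Format: 96-well plates. Endpoint: linear interpolation; highest concentration if not reached. GI50 marks 50% less growth. TGI: concentration producing complete growth inhibition.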

Holding throughout (assay): growth of human tumour cells (NCI), 48 h
Test [1] relates to NCI-H226 lung.
The test system of test [2] is UACC-257 melanoma.
The test system of test [3] is U251 CNS.
Test [4] deals with HCC-2998 colon.
The test system of test [5] is A549 NSCLC.
The subject of test [6] is NCI-H460 lung.
The test system of test [7] is UO-31 renal.
For test [8], the system named is HOP-62 NSCLC.
Test [9] concerns DU-145 prostate.
In test [10] the test system is HL-60(TB) leukemia.

With `O=C(O)c1cc(O)c2c(c1)C(C1c3cc(C(=O)O)cc(O)c3C(=O)c3c(OC4OC(CO)C(O)C(O)C4O)cccc31)c1cccc(OC3OC(CO)C(O)C(O)C3O)c1C2=O` (stereo not given), the GI50 in test [1], in test [2], in test [3], in [4], in test [5] and in test [6] was greater than 100 µM in each case. For the same molecule, the GI50 in test [7], in test [8], in test [9] and in test [10] was greater than 100 µM throughout. For the same molecule, the TGI in test [1], in test [2], in [3], in test [4], in [5] and in test [6] was greater than 100 µM in each case. Further, the TGI in test [7], in test [8], in test [9] and in test [10] was greater than 100 µM in each case.
Regarding `O=c1[nH]c2cc(Cl)ccc2n1C1CCN(CCCC(c2ccc(F)cc2)c2ccc(F)cc2)CC1`, the GI50 in test [1] was 1.87 µM; in test [2], 1.56 µM; in test [3] it was 1.54 µM; in test [4], 1.87 µM; in test [5], 1.65 µM; in test [6], 1.74 µM. The GI50 is 1 µM in test [7], 1.55 µM in [8], 1.82 µM in test [9] and 2.97 µM in test [10]. Besides, the TGI amounted to 3.53 µM in [1]; 3.04 µM in test [2]; 2.87 µM in test [3]; 3.49 µM in test [4]; 3.39 µM in test [5]; 3.14 µM in [6]. The TGI in test [7] stood at 2.38 µM; in test [8], 3.05 µM; in test [9], 3.32 µM; in [10], 14.7 µM.
Turning to `Cc1ccc(N(CSc2ccc(Cl)cc2)CSc2ccc(Cl)cc2)cc1`, the GI50 in test [1] is 1.09 µM; in test [2], 3.72 µM; in test [3], 0.581 µM; in test [4], 2.57 µM; in [5], 0.448 µM; in test [6] it was 0.575 µM. Further, the GI50 is 0.717 µM in test [7], 2.71 µM in [8], 2.57 µM in [9] and 1.65 µM in test [10]. Also, the TGI in [1] was 2.45 µM; in test [2], greater than 100 µM; in test [3], 11.2 µM; in [4] it was 11.7 µM; in test [5], greater than 100 µM; in test [6], greater than 100 µM. Moreover, the TGI in test [7] was determined as 2.75 µM; in [8], 16.4 µM; in [9], 23 µM; in [10], 3.65 µM.
Consider `CCN(CC)CC(C)(C)C(=O)/C=C/c1ccc(Cl)c(Cl)c1`, for which the GI50 in [1] was 1.71 µM; in test [2], 2.07 µM; in test [3], 1.71 µM; in test [4] it was 1.61 µM; in test [5] it was 2.38 µM; in test [6], 2.07 µM. Moreover, the GI50 is 1.32 µM in test [7], 1.75 µM in [8], 1.41 µM in test [9] and 1.07 µM in test [10]. The TGI in test [1] was 3.35 µM; in [2] it was 3.64 µM; in test [3], 3.15 µM; in test [4], 3.08 µM; in test [5] it was 4.88 µM; in test [6], 4.36 µM. Also, the TGI came to 2.72 µM in test [7], 3.29 µM in test [8], 2.71 µM in test [9] and 6.59 µM in [10].
Consider `c1ccc2c3ccn4cc5c(cc4c-3nc2c1)CCCC5`, for which the GI50 is 3.3 µM in test [1]; 5.42 µM in test [2]; 3.22 µM in test [3]; 4.3 µM in [4]; 9.19 µM in [5]; 1.69 µM in [6]. Also, the GI50 is 14.6 µM in [7], 3.5 µM in [8], 2.31 µM in test [9] and 0.81 µM in [10]. The TGI in test [1] was 10.2 µM; in [2], 38.2 µM; in test [3] it was 13.6 µM; in [4], 15 µM; in [5], 32.6 µM; in test [6], 3.85 µM. The TGI stood at 29.8 µM in test [7], 13.1 µM in [8], 10.5 µM in test [9] and 3.81 µM in [10].
For the molecule `O=C(Nc1ccc(Cl)cc1F)c1cc(Br)ccc1O`, the GI50 is 1.16 µM in [1]; 0.705 µM in test [2]; 0.913 µM in test [3]; 2.73 µM in [4]; 1.42 µM in test [5]; 0.653 µM in test [6]. Moreover, the GI50 in [7] is 0.461 µM; in [8], 1.25 µM; in test [9], 1.89 µM; in [10], 0.919 µM. The TGI in test [1] is 4.11 µM; in [2], 3.29 µM; in test [3], greater than 52.4 µM; in [4], 13.3 µM; in test [5], greater than 100 µM; in test [6], 18.3 µM. The TGI was 3.65 µM in test [7], 7.96 µM in test [8], greater than 100 µM in test [9] and 3.77 µM in test [10].
On to `O=C(N/N=C\c1cc(Br)ccc1O)c1ccncc1`, for which the GI50 in test [1] was 1.86 µM; in [2], 2.33 µM; in test [3], 1.92 µM; in test [4] it was 1.81 µM; in test [5] it was 4.27 µM; in test [6] it was 1.25 µM. In addition, the GI50 is 1.76 µM in test [7], 1.57 µM in test [8], 2.53 µM in test [9] and 1.28 µM in test [10]. The TGI in test [1] was 32.6 µM; in [2], 15.9 µM; in test [3], 68.8 µM; in [4] it was greater than 100 µM; in test [5], greater than 100 µM; in test [6], greater than 100 µM. Besides, the TGI in [7] is greater than 100 µM; in [8] it was 66.2 µM; in test [9] it was greater than 100 µM; in [10], 5.57 µM.

Values taken from PubChem BioAssay (NCI).
